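Following 48 hours of exposure in 96-well plates, responses at five concentrations were used to interpolate endpoints linearly. TGI denotes the concentration required for complete inhibition of growth.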
What was measured:
Assay in all cases: NCI tumour cell line growth inhibition, 48 h
HCT-116 colon = system: HCT-116 colon
LOX IMVI melanoma = system: LOX IMVI melanoma
RXF 393 renal = system: RXF 393 renal
MALME-3M melanoma = system: MALME-3M melanoma
SNB-75 CNS = system: SNB-75 CNS
DLD-1 colon = system: DLD-1 colon
SK-MEL-5 melanoma = system: SK-MEL-5 melanoma
SN12K1 renal = system: SN12K1 renal
K-562 leukemia = system: K-562 leukemia
HL-60(TB) leukemia = system: HL-60(TB) leukemia
MOLT-4 leukemia = system: MOLT-4 leukemia
UACC-257 melanoma = system: UACC-257 melanoma
U251 CNS = system: U251 CNS
P388/ADR leukemia = system: P388/ADR leukemia
SNB-19 CNS = system: SNB-19 CNS
OVCAR-3 ovarian = system: OVCAR-3 ovarian
NCI-H226 lung = system: NCI-H226 lung
HT29 colon = system: HT29 colon
DMS 114 small cell lung = system: DMS 114 small cell lung
UACC-62 melanoma = system: UACC-62 melanoma
UO-31 renal = system: UO-31 renal
MCF7 breast = system: MCF7 breast
OVCAR-8 ovarian = system: OVCAR-8 ovarian
SK-OV-3 ovarian = system: SK-OV-3 ovarian
A498 renal = system: A498 renal
OVCAR-5 ovarian = system: OVCAR-5 ovarian
DMS 273 small cell lung = system: DMS 273 small cell lung
COLO 205 colon = system: COLO 205 colon
KM20L2 colon = system: KM20L2 colon
SN12C renal = system: SN12C renal
SF-295 CNS = system: SF-295 CNS
SF-539 CNS = system: SF-539 CNS
P388 leukemia = system: P388 leukemia
HOP-18 NSCLC = system: HOP-18 NSCLC
SK-MEL-28 melanoma = system: SK-MEL-28 melanoma
OVCAR-4 ovarian = system: OVCAR-4 ovarian
NCI-H522 lung = system: NCI-H522 lung
KM12 colon = system: KM12 colon
CCRF-CEM leukemia = system: CCRF-CEM leukemia
NCI-H460 lung = system: NCI-H460 lung
M19-MEL melanoma = system: M19-MEL melanoma
NCI-H23 lung = system: NCI-H23 lung
SNB-78 CNS = system: SNB-78 CNS
SK-MEL-2 melanoma = system: SK-MEL-2 melanoma
SF-268 CNS = system: SF-268 CNS
NCI/ADR-RES ovarian = system: NCI/ADR-RES ovarian
A549 NSCLC = system: A549 NSCLC
HOP-92 NSCLC = system: HOP-92 NSCLC
IGROV1 ovarian = system: IGROV1 ovarian
EKVX NSCLC = system: EKVX NSCLC
HCC-2998 colon = system: HCC-2998 colon
HOP-62 NSCLC = system: HOP-62 NSCLC
HCT-15 colon = system: HCT-15 colon
RPMI-8226 leukemia = system: RPMI-8226 leukemia
SW-620 colon = system: SW-620 colon

Measured: TGI

CSc1nc(NC2OCC(O)C(O)C2O)c(N)c(=O)[nH]1 (stereo not given)
> 100 µM: all assays above

Source: PubChem BioAssay (NCI)
